Active and inactive are the calls of the source.
Columns and labels:
Coagulation factor XII = Coagulation factor XII (Homo sapiens, UniProt P00748); assay type: functional;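 also: activated factor XIIa alpha cleaving a fluorogenic AMC peptide substrate; inhibitor potency from loss of enzyme activity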
[1] = target: DNA damage-inducible transcript 3 protein (Mus musculus, UniProt P35639); assay type: functional, Cricetulus griseus
Streptokinase A = target: T1, Streptokinase A (Streptococcus pyogenes serotype M1, UniProt P10520); assay: S. pyogenes streptokinase expression inhibitors, potency, dose response, plasminogen activation absorbance, OD405 (AID 1914); assay type: functional, Streptococcus pyogenes M1 GAS;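 also: secreted streptokinase activity via plasminogen activation per viability signal from cell pellet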
T1 sequence (P10520 whole entry): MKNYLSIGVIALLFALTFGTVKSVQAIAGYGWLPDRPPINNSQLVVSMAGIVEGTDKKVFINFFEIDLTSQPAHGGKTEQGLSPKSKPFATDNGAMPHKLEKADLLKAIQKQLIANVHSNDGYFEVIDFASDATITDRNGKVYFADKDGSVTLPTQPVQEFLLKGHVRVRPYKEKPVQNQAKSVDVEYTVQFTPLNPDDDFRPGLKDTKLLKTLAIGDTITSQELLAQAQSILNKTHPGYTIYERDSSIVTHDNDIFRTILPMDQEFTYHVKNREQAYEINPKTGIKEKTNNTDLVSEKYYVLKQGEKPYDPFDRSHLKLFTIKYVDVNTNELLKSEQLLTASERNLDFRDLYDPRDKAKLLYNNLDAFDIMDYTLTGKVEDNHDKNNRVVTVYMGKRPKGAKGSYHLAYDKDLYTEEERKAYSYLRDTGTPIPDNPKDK

[2] = cytotoxicity in KRAS-transformed pancreatic duct cells, primary screen, cell-based, fluorescence, HTS (AID 431); assay type: functional; settings: Homo sapiens;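 also: cell line used: HPDE-C7K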
[3] = test system: Streptococcus sp. 'group A'; assay: growth inhibition of control SK(-) GAS strain, dose response, counter-screen for streptokinase expression inhibitor project, luminescence, kanamycin, BacTiterGlo, confirmation (AID 1900); assay type: functional, organism-based
Streptococcus = assay: Group A Streptococcus viability loss, dose response, counter-screen for streptokinase expression inhibitor project, luminescence, BacTiterGlo (AID 1915); assay type: functional, organism-based;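 also: potency for reduction of bacterial viability or growth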
[4] = cytotoxicity in HPDE-C7 cells, cell-based, fluorescence, HTS (AID 430); assay type: functional; settings: Homo sapiens
Beta-galactosidase = Beta-galactosidase (Escherichia coli, UniProt Q8VNN2); assay: Dose response counterscreen for EBI2 assay utilizing the enzyme, b-galactosidase.; assay type: functional
[5] = target: T2, Ubiquitin-conjugating enzyme E2 N (Homo sapiens, UniProt P61088); assay type: functional
T2 sequence (P61088 whole entry): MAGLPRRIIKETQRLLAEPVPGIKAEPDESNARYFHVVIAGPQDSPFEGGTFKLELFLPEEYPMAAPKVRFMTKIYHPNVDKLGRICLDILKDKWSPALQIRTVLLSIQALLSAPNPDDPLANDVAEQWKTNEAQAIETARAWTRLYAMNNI

Bcl-2-related protein A1 = target: T3, Bcl-2-related protein A1 (Mus musculus, UniProt Q07440); assay type: functional;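 also: confirmatory dose–response counterscreen on Bfl-1, used to check hits from a UBC13 polyubiquitin inhibitor campaign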
T3 sequence (Q07440 whole entry): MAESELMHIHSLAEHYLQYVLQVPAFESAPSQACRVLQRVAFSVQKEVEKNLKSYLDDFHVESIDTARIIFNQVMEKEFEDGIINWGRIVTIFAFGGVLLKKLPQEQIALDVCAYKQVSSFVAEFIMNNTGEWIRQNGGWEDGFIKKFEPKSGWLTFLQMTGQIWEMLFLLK

[6] = target: T2, Ubiquitin-conjugating enzyme E2 N; assay type: functional; remark: listed apart in the source
[7] = target: T4, Runt-related transcription factor 1/Core-binding factor subunit beta (Homo sapiens, UniProt Q01196+Q13951); assay: inhibitors of RUNX1 Runt–CBFb-SMMHC binding, primary screen, biochemical, FRET, Cerulean-Runt, Venus-CBFb-SMMHC, uHTS (AID 1434); assay type: protein assay;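 also: partner is the CBFb-SMMHC leukemia fusion protein rather than wild-type CBFb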
Aminopeptidase N = target: T5, Aminopeptidase N (Plasmodium falciparum FcB1/Columbia, UniProt O96935); assay: P. falciparum M1AAP inhibitors, biochemical, fluorogenic H-Leu-NHMec substrate, 1536-well (AID 1445); parameters: species or system Plasmodium falciparum 3D7, 3D7
T5 sequence (O96935 whole entry): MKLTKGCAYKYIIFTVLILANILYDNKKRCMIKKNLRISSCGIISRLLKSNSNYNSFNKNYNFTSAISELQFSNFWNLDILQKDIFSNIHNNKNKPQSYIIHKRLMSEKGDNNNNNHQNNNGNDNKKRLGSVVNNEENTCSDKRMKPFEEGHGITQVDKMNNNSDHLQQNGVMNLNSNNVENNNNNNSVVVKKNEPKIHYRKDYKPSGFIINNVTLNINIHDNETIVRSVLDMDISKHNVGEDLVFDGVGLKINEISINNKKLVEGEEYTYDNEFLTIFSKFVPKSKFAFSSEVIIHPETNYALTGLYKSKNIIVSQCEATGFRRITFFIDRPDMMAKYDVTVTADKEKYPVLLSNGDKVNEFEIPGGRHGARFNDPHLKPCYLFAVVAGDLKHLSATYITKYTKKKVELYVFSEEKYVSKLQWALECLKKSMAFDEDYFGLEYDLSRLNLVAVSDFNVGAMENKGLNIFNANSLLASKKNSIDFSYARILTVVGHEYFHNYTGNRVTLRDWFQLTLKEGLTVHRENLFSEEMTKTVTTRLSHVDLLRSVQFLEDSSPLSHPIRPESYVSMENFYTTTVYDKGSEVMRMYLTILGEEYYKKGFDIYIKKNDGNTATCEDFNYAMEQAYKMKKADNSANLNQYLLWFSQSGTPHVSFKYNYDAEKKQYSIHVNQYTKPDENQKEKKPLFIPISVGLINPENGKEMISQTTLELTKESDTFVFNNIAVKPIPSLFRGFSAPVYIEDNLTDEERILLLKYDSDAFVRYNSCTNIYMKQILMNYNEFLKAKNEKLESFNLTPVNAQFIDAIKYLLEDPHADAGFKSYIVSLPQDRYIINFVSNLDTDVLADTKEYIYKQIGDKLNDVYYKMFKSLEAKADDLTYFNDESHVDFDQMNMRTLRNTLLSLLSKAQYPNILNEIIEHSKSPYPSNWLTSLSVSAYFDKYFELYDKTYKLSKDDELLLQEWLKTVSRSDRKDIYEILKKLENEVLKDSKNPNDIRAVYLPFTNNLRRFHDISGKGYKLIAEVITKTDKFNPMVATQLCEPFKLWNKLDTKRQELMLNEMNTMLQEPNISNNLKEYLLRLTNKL

[8] = target: T4, Runt-related transcription factor 1/Core-binding factor subunit beta; assay: inhibitors of RUNX1 Runt–CBFb-SMMHC binding, biochemical, TR-FRET (AID 1438); assay type: protein assay
[9] = target: T6, High affinity choline transporter 1 (Homo sapiens, UniProt Q9GZV3); assay: CHT inhibitors, dose response, cell-based, 5-point CRC, membrane potential dye (AID 504840); assay type: functional
T6 sequence (Q9GZV3 whole entry): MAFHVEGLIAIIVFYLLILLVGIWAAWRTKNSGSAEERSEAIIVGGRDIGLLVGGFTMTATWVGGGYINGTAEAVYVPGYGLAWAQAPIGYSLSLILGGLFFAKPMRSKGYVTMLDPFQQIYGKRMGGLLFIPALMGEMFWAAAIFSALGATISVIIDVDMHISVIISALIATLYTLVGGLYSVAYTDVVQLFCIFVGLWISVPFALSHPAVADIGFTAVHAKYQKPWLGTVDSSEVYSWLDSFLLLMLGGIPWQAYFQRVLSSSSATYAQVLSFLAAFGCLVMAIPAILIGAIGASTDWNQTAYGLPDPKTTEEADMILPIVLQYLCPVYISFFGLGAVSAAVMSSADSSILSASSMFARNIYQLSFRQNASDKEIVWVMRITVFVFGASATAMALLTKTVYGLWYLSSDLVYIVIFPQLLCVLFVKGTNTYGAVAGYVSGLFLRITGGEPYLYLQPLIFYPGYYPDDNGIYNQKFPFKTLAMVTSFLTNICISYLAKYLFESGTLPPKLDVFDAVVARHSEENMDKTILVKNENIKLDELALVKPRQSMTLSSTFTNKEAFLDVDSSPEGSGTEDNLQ

[10] = target: Intestinal-type alkaline phosphatase (Homo sapiens, UniProt P09923); assay: human intestinal alkaline phosphatase activators, dose response, biochemical, luminescence, uHTS hits (AID 463120); assay type: functional
Mucolipin-3 = target: T7, Mucolipin-3 (Homo sapiens, UniProt Q8TDD5); assay: Fluorescence counterscreen assay for […] agonists: dose response cell-based high-throughput screening assay to identify agonists of the transient receptor potential channel ML3 (TRPML3). [Related pubchem assays: 1424, 1448 ]; assay type: functional
T7 sequence (Q8TDD5 whole entry): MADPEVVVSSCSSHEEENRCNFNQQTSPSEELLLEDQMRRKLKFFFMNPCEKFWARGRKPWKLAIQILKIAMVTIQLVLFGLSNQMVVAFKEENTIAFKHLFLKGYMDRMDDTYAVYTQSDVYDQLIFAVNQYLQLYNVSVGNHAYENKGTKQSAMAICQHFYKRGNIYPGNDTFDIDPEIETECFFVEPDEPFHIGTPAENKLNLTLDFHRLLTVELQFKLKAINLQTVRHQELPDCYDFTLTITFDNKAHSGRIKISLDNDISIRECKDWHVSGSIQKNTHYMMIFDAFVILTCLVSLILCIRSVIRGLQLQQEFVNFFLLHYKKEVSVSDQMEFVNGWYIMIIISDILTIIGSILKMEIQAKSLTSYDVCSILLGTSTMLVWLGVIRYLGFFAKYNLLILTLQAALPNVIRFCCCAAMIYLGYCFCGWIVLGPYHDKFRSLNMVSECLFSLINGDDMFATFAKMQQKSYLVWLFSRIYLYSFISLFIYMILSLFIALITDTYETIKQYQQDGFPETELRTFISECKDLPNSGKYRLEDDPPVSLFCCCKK

Ion channel NompC = Ion channel NompC (Danio rerio, UniProt Q7T1G6); assay: Dose response cell-based high-throughput screening assay for agonists of the transient receptor potential channel N1 (TRPN1). [Related pubchem assays (depositor defined):AID1424, AID1448]; assay type: functional
Fatty acid synthase [11] = target: T8, Fatty acid synthase (Homo sapiens, UniProt P49327); assay: FAS thioesterase domain inhibitors, dose response, biochemical, endpoint fluorescence intensity, uHTS hits (AID 624327); assay type: functional;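 also: fluorescence from hydrolysis of an O-methyl fluorescein acyl ester substrate by the enzyme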
[12] = target: Protein phosphatase methylesterase 1 (Homo sapiens, UniProt Q9Y570); assay: PME-1 inhibitors by competitive ABPP, late-stage follow-up, gel-based ABPP, IC50, set 1 (AID 463130); assay type: functional
Fatty acid synthase [13] = target: T8, Fatty acid synthase; assay: FAS thioesterase domain inhibitors, dose response, biochemical, kinetic fluorescence intensity (AID 624326); assay type: functional;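 also: rate of fluorescence rise from hydrolysis of a fluorogenic O-methyl fluorescein ester substrate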
Cannabinoid receptor 2 [14] = target: T9, Cannabinoid receptor 2 (Homo sapiens, UniProt P34972); assay: SAR analysis of antagonists of the Cannabinoid Receptor 2 using an Image-Based Assay - Set 3. [Related pubchem assays (depositor defined):AID2013, AID2026]; assay type: functional
Cannabinoid receptor 2 [15] = target: T9, Cannabinoid receptor 2; assay: SAR analysis of agonists of the Cannabinoid Receptor 2 using an Image-Based Assay - Set 3. [Related pubchem assays (depositor defined):AID2013, AID2026]; assay type: functional
[16] = target: G-protein coupled receptor 55 (Homo sapiens, UniProt Q9Y2T6); assay: SAR Analysis of Selective Antagonists of GPR55 using an Image-Based Assay - Set 4. [Related pubchem assays (depositor defined):AID2013, AID2026]; assay type: functional;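 also: antagonism of response to 5 µM lysophosphatidylinositol agonist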
Cannabinoid receptor 1 [17] = target: T10, Cannabinoid receptor 1 (Homo sapiens, UniProt P21554); assay: SAR analysis of agonists of the Cannabinoid Receptor 1 using an Image-Based Assay - Set 4. [Related pubchem assays (depositor defined):AID2013, AID2026]; assay type: functional
Cannabinoid receptor 1 [18] = target: T10, Cannabinoid receptor 1; assay: SAR analysis of antagonists of the Cannabinoid Receptor 1 using an Image-Based Assay - Set 4. [Related pubchem assays (depositor defined):AID2013, AID2026]; assay type: functional
[19] = target: T11, G-protein coupled receptor 35 (Homo sapiens, UniProt Q9HC97); assay: SAR analysis of Agonists of the GPR35 Receptor using an Image-Based Assay - Set 4. [Related pubchem assays (depositor defined):AID2013, AID2026]; assay type: functional
[20] = target: T11, G-protein coupled receptor 35; assay: SAR analysis of Antagonists of the GPR35 Receptor using an Image-Based Assay - Set 6. [Related pubchem assays (depositor defined):AID2013, AID2026]; assay type: functional

T10 sequence (P21554 whole entry): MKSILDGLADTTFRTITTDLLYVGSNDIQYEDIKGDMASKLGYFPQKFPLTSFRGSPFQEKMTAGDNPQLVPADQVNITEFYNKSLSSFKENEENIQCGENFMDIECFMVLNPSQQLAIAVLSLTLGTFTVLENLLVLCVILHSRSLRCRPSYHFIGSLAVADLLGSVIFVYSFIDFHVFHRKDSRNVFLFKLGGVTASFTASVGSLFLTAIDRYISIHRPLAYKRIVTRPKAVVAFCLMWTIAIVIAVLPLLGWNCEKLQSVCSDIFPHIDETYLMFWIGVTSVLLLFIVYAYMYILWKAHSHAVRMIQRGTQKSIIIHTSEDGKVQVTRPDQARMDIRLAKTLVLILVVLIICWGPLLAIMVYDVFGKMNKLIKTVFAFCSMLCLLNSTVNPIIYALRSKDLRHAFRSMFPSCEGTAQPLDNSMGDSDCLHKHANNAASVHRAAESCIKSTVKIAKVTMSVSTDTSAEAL
T4 sequence (Q01196 whole entry, the tested form may be a part): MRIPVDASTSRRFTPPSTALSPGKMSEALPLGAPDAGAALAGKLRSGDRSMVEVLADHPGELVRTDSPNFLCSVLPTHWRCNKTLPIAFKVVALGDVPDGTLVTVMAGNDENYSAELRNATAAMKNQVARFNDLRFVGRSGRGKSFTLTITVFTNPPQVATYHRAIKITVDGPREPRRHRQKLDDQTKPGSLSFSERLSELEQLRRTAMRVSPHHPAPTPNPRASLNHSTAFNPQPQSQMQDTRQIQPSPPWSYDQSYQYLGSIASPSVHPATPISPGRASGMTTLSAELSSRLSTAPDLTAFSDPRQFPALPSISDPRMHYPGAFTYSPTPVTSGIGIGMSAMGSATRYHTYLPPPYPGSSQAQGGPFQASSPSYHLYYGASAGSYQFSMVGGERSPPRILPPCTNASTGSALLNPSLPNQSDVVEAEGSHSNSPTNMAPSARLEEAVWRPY
T4 sequence (Q13951 whole entry, the tested form may be a part): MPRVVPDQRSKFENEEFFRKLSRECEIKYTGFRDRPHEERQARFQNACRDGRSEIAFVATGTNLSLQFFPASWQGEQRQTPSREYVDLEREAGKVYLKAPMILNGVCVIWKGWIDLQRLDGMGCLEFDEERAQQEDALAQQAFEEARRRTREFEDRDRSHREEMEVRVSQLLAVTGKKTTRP
T11 sequence (Q9HC97 whole entry): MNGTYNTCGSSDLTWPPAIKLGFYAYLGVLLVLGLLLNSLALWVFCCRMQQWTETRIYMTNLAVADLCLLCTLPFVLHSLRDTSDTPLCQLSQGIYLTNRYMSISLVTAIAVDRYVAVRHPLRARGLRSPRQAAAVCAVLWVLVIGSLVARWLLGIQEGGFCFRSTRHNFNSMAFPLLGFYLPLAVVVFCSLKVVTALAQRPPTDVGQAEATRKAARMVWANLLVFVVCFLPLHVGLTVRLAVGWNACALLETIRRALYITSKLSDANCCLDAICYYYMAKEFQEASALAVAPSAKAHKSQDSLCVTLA
T9 sequence (P34972 whole entry): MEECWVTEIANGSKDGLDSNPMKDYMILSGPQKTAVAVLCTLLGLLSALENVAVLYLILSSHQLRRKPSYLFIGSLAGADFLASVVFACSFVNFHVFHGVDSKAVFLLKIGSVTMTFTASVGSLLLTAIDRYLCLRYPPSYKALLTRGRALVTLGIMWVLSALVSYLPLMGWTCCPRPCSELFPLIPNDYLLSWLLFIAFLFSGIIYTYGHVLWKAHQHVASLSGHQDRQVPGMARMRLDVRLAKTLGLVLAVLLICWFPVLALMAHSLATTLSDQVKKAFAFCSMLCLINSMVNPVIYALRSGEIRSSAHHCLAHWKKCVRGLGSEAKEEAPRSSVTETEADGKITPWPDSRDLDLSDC
T8 sequence (P49327 whole entry, the tested form may be a part): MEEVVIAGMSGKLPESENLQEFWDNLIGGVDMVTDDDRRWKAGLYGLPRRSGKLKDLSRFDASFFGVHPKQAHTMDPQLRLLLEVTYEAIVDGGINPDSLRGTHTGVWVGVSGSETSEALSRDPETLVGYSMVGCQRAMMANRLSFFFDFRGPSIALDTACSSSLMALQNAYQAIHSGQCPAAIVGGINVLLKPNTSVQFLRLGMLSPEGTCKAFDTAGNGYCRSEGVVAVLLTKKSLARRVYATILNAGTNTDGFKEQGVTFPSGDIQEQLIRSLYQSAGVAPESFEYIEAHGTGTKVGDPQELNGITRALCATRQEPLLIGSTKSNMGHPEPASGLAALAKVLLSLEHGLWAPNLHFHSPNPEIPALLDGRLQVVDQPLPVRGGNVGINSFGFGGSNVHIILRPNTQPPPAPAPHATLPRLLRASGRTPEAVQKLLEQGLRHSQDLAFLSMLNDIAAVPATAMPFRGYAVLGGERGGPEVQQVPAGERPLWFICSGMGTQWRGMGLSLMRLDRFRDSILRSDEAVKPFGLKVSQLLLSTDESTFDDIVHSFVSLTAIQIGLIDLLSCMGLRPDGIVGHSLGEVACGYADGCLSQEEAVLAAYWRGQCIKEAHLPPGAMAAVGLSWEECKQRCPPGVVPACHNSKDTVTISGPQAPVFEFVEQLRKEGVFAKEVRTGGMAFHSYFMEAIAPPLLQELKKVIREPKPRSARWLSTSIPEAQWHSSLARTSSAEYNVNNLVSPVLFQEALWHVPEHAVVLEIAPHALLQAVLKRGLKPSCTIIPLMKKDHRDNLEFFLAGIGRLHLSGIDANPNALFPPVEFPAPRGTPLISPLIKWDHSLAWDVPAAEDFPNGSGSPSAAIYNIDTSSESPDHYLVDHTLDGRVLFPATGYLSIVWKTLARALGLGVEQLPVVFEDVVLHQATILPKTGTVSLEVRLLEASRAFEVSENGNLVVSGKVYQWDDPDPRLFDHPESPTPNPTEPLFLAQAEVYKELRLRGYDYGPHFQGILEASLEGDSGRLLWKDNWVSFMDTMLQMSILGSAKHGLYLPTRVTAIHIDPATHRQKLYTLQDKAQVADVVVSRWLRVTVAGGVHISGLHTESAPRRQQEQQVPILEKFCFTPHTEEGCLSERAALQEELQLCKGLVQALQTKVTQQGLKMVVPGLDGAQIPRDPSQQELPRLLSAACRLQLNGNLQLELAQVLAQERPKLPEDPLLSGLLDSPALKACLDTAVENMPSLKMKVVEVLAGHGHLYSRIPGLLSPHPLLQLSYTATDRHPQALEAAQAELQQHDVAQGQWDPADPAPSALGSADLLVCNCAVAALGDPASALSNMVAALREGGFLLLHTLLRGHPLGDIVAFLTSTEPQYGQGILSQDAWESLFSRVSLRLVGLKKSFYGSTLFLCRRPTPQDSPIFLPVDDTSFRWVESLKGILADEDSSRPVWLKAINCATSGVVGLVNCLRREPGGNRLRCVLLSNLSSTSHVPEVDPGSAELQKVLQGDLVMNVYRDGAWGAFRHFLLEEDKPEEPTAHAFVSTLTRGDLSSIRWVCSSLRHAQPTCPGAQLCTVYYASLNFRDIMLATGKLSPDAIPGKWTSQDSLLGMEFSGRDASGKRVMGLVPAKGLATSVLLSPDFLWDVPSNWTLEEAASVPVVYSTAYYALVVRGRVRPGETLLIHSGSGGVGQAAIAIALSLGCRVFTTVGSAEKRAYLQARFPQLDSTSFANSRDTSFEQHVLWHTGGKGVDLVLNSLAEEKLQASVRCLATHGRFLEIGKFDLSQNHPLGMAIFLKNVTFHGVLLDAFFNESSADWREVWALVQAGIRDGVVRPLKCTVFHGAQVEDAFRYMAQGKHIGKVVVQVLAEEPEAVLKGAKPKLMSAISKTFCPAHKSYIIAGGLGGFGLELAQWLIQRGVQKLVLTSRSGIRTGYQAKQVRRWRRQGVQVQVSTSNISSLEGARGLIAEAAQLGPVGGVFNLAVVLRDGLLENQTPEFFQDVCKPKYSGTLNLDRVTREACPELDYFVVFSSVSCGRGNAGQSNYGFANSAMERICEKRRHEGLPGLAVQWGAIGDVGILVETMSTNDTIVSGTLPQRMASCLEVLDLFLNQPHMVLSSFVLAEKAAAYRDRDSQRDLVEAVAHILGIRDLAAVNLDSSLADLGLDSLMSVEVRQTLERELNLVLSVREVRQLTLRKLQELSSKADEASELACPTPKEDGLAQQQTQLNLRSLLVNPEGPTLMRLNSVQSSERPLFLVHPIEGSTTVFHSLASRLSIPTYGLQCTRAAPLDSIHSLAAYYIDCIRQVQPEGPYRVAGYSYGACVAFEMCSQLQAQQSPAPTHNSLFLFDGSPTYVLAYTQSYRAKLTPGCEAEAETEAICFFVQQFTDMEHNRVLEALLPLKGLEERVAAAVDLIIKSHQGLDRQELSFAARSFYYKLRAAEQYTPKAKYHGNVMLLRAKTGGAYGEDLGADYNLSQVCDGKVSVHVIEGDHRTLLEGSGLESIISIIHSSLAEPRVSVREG
Sequence of Protein phosphatase methylesterase 1 (Q9Y570 whole entry, the tested form may be a part): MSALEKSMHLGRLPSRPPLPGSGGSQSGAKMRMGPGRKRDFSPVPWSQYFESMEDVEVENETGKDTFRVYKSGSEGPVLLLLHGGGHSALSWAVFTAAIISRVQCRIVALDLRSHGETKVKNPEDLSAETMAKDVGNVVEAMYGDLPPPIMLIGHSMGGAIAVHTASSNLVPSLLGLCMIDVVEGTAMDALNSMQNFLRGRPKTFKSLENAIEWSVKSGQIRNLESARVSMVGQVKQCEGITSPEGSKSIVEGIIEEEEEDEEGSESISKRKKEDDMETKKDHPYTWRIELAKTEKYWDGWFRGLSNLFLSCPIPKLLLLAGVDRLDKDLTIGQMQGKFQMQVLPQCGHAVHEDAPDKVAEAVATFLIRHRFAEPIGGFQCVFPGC
Sequence of DNA damage-inducible transcript 3 protein (P35639 whole entry): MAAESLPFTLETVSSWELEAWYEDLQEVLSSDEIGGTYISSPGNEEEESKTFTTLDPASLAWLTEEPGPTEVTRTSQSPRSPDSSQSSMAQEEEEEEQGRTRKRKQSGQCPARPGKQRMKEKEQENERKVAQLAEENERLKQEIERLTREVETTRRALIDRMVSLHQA

## COC(=O)c1ccc(C(C(=O)NC2CCCCC2)N(CCN2CCOCC2)C(=O)Cc2cccs2)cc1 (stereo not drawn)
Coagulation factor XII
  IC50: > 50 µM (inactive)

## Nc1c(S(=O)(=O)c2ccccc2)c2nc3ccccc3nc2n1/N=C/c1cccc(O)c1
[1]
  Absolute IC50 (CHOP): 10 µM
Streptokinase A
  EC50: 23.6 µM (active)
[2]
  EC50: 2.83 µM (active)
[3]
  EC50: 7.72 µM (active)
Streptococcus
  EC50: 75.4 µM (active)
[4]
  EC50: 2.92 µM (active)
Beta-galactosidase
  IC50: > 80 µM (inactive)

## Cc1ccc(C(=O)NC(C)c2ccc(-n3ccnc3)cc2)cc1S(=O)(=O)N1CCOCC1 (stereo not drawn)
[5]
  IC50: 17.3 µM (active)
Bcl-2-related protein A1
  IC50: > 20 µM (inactive)
[6]
  IC50: 11.5 µM (active)

## CC1=CC(c2ccc(Cl)cc2)N2NC(NS(=O)(=O)c3ccc(C)cc3)=NC2=N1 (stereo not drawn)
[7]
  IC50: 23.6 µM (active)
Aminopeptidase N
  IC50: 104 µM (active)
[8]
  IC50: 31.5 µM (active)

## OC1CN=C2Sc3ccccc3N2C1 (stereo not drawn)
[9]
  IC50: 15.1 µM (active)
[10]
  EC50: > 100 µM (inactive)

## CCN1C(=O)/C(=C/c2ccc(N3CCCC3)cc2)NC1=S
Mucolipin-3
  EC50: 2.43 µM (active)
Ion channel NompC
  EC50: 1.28 µM (active)

## COC(=O)N1C(=O)[C@](c2ccc(OC)cc2)(C(C)C)N1C(=O)OC
Fatty acid synthase [11]
  IC50: 3.86 µM (active)
[12]
  IC50: 0.069 µM (active)
Fatty acid synthase [13]
  IC50: 2.06 µM (active)

## Cc1ccc(-n2cc3c(-c4ccccc4)nnc(C)c3n2)cc1
Cannabinoid receptor 2 [14]
  IC50: > 32 µM (inactive)
Cannabinoid receptor 2 [15]
  EC50: > 32 µM (inactive)
[16]
  IC50: 6.89 µM (active)
Cannabinoid receptor 1 [17]
  EC50: > 32 µM (inactive)
Cannabinoid receptor 1 [18]
  IC50: 8.66 µM (active)
[19]
  EC50: > 32 µM (inactive)
[20]
  IC50: > 32 µM (inactive)
